Assay results reported in paper PMC6270165, “Synthesis and Biological Evaluation of 3-Benzisoxazolyl-4-indolylmaleimides as Potent, Selective Inhibitors of Glycogen Synthase Kinase-3β” (Molecules, 2013).

Experiments:
Format in all cases: biochemical
[1] = molecular target: T1, GSK-3β (Homo sapiens, UniProt P49841); experiment: GSK-3β kinase assay (Z'-LYTE Kinase Assay kit Ser/Thr 9 Peptide)
T1 construct: GST (N, cleaved yes); made in house; host or cells: Escherichia coli BL21-Codon Plus (DE3)
Experimental: (§1) GSK3β belongs to CMGC family. Here, the other family members were used to evaluate the selectivity of GSK3β inhibitors, including PKC-epsilon (AGC family), JAK2 (TK family), Braf (TKL family), DRAK2 (CAMK family) and IKKβ (other family).The recombinant GST-GSK-3βprotein was expressed in Escherichia coli strain BL21-Codon Plus (DE3), purified by GSTrap affinity chromatography, and cleaved by thrombin. The GSK-3β kinase assay was carried out with the Z´-LYTETM Kinase Assay kit Ser/Thr 9 Peptide substrate (Invitrogen, Grand, NY, USA) in 10 μL reaction volume containing 50 nM enzyme, 30 μM ATP and 2 μM substrate peptide. Drak2 Proteins were presented by professor Jiang-ping Wu (Laboratory of Immunology, Research Centre, CHUM, Notre Dame Hospital, Pavilion DeSève). The Drak2 kinase reaction was performed in a final assay volume of 3.4 μL using the ADP-GLO Kinase Assay Kit (Promega, Madison, WI, USA), according the ADP-GLO protocol and read on an EnVision plate reader. The recombinant PKC-epsilon, IKKβ, and JAK2 with N-terminal His-tag were expressed using baculovirus expression system and purified with Ni-Beads. BRAF protein was from Carna Biosciences, Inc. (Kobe Port Island, Japan). And the related kinase reactions were performed in a final assay volume of 10 μL using the related HTRF Assay Kit (Cisbio, Codolet, France). Reactions were according the HTRF protocol and read on an EnVision plate reader. All reactions were carried out in triplicate. […] Data were expressed as mean ± SE.

[2] = molecular target: T2, PKC-epsilon (Homo sapiens, UniProt Q02156); experiment: PKC-epsilon kinase assay (HTRF); conditions: read-out: PKC-epsilon inhibition% at 0.8 μg/mL (~2 μM)
T2 construct: His-tag (N); made in house
T2 sequence (Q02156 1-737): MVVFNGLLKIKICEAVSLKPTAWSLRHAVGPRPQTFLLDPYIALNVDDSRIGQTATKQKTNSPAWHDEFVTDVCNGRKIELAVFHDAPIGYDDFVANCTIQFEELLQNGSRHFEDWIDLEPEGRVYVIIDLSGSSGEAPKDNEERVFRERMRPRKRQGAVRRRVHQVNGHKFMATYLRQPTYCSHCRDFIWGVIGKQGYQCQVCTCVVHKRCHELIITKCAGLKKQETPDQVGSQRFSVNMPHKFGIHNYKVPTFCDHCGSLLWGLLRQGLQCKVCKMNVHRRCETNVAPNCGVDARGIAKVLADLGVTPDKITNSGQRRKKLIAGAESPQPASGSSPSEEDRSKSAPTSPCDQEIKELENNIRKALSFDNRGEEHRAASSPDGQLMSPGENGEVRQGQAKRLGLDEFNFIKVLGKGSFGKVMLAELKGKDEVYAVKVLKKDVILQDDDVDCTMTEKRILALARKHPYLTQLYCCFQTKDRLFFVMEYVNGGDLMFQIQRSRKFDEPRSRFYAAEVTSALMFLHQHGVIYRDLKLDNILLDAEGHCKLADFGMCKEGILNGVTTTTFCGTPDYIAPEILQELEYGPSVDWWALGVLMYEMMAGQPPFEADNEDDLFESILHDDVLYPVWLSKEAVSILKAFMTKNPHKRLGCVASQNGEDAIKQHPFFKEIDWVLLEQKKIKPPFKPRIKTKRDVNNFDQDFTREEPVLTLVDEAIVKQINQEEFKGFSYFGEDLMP
Experimental: as §1

[3] = molecular target: T3, JAK2 (Homo sapiens, UniProt O60674); experiment: JAK2 kinase assay (HTRF); conditions: read-out: JAK2 inhibition% at 0.8 μg/mL (~2 μM)
T3 construct: His-tag (N); made in house
T3 sequence (O60674 whole entry): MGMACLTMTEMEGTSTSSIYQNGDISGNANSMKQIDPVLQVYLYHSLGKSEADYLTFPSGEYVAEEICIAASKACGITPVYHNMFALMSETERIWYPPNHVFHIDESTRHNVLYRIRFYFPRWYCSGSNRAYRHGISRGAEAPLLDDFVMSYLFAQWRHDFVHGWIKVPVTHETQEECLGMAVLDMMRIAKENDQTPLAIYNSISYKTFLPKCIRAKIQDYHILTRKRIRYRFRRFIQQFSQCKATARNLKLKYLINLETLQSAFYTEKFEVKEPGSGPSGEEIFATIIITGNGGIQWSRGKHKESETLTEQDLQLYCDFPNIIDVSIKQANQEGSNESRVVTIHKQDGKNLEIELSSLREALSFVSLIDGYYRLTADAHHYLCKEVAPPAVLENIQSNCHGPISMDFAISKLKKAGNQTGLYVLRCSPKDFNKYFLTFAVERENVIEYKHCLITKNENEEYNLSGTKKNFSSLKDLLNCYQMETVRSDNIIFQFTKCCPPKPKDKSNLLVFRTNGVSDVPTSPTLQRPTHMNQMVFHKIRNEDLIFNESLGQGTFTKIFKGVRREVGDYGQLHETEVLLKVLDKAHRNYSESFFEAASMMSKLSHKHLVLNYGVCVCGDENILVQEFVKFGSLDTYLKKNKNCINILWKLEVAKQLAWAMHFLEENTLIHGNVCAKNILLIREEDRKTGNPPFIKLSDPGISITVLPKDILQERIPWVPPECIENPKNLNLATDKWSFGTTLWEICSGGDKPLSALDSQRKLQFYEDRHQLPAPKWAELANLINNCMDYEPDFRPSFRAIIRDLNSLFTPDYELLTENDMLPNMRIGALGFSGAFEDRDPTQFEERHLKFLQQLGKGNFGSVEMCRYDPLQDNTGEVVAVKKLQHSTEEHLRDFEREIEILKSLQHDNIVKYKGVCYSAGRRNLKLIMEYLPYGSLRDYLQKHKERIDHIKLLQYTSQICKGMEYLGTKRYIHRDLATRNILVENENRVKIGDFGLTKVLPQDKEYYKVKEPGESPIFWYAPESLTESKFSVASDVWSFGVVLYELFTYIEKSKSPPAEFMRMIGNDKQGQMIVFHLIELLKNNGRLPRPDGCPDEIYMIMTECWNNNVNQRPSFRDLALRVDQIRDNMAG
Experimental: as §1

[4] = molecular target: T4, BRAF (Homo sapiens, UniProt P15056); experiment: BRAF kinase assay (HTRF); conditions: read-out: BRAF inhibition% at 0.8 μg/mL (~2 μM)
T4 construct: purchased Carna Biosciences, Inc
T4 sequence (P15056 whole entry): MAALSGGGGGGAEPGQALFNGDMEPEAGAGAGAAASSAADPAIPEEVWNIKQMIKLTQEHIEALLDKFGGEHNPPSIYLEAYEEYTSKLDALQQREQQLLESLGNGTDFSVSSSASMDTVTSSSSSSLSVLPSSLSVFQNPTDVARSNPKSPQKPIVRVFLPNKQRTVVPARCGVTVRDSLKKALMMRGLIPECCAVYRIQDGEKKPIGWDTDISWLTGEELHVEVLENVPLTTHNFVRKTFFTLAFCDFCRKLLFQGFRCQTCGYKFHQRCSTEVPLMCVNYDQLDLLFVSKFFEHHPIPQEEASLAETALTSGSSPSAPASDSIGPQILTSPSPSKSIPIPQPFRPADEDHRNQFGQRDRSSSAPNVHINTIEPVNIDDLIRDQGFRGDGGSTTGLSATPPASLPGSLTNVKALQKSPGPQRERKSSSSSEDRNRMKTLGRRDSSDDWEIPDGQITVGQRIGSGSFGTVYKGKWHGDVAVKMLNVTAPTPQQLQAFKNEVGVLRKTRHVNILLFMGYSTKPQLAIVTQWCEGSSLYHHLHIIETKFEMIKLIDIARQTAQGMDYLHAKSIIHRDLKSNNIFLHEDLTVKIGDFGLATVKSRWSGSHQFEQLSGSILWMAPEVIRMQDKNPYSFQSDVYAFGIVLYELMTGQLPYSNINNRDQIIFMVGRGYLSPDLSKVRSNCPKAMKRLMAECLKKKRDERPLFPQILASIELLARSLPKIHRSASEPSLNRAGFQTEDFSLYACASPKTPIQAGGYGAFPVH
Experimental: as §1

[5] = molecular target: T5, IKK2 (Homo sapiens, UniProt O14920); experiment: IKK2 (IKKβ) kinase assay (HTRF); conditions: read-out: IKK2 inhibition% at 0.8 μg/mL (~2 μM)
T5 construct: His-tag (N); made in house
T5 sequence (O14920 1-756): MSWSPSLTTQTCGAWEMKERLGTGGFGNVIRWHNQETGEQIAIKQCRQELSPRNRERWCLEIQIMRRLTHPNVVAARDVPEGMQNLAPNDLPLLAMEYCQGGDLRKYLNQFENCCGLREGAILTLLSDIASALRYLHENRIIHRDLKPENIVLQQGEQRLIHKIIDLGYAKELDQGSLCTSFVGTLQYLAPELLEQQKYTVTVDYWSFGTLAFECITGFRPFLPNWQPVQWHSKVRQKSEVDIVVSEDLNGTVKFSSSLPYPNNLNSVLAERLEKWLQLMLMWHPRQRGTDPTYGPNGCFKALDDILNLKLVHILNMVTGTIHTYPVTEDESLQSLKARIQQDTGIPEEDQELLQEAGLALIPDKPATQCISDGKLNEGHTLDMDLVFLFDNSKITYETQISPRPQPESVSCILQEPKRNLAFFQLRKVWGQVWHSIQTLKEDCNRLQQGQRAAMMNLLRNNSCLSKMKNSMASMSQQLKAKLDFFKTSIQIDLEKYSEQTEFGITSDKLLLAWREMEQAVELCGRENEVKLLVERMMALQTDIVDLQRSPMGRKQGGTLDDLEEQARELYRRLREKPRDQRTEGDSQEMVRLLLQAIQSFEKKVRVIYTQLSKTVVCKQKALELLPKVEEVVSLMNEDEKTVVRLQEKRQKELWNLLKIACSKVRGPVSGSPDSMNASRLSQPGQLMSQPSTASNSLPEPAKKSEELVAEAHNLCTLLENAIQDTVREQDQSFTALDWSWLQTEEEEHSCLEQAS
Experimental: as §1

[6] = molecular target: T6, Drak2 (Homo sapiens, UniProt O94768); experiment: Drak2 kinase assay (ADP-GLO); conditions: read-out: Drak2 inhibition% at 0.8 μg/mL (~2 μM)
T6 sequence (O94768 1-372): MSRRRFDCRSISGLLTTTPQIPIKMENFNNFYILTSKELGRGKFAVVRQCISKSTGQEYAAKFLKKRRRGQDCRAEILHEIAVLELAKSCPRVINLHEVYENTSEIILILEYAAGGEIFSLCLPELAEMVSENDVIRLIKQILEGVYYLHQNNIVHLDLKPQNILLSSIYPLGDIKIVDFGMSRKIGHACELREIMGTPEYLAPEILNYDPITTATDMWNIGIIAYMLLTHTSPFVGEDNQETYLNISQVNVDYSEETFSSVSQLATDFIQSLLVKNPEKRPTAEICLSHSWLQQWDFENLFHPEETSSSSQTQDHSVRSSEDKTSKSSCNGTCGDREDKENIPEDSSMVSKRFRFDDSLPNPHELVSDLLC
Experimental: as §1

T1 sequence (P49841 whole entry): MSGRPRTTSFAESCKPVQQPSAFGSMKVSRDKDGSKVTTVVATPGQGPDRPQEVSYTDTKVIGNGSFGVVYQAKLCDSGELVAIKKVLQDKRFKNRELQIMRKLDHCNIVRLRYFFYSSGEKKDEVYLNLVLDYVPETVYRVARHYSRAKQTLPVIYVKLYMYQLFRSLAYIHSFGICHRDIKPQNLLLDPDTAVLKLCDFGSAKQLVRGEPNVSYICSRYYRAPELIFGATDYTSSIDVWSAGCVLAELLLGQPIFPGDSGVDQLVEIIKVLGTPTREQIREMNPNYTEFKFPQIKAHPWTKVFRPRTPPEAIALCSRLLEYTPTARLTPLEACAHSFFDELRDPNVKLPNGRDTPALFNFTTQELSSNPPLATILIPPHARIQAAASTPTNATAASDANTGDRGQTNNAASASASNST

IC50 ([1]; 50 nM enzyme, 30 μM ATP, 2 μM substrate peptide, triplicate, mean ± SE, read-out: GSK-3β inhibitory activity IC50 (nM) ± SE): 10.2 ± 5.9 nM
GSK-3β inhibitory activity, fold increase as compared to 7h ([1]; ratio of IC50 values, versus 7h): 14 fold
Selectivity for GSK-3β over other tested kinases ([1]; versus PKC-epsilon, JAK2, BRAF, IKK2 and Drak2): high selectivity
inhibition at 2 µM [2]: 12.1%
inhibition at 2 µM [3]: 0.1%
inhibition at 2 µM [4]: 3.4%
inhibition at 2 µM [5]: 13.1%
inhibition at 2 µM [6]: 1.67%
Compound: O=C1NC(=O)C(c2cn(CCCN3CCOCC3)c3ccc(Br)cc23)=C1c1noc2ccccc12 [7c, 3-(Benzo[d]isoxazol-3-yl)-4-(5-bromo-1-(3-morpholinopropyl)-1H-indol-3-yl)-1H-pyrrole-2,5-dione]
